Experimental data: paper PMC4585029, “Agonist and antagonist effects of tobacco-related nitrosamines on human α4β2 nicotinic acetylcholine receptors” (Frontiers in Pharmacology, 2015)
Entries after “also recorded” stand apart in the source; their conditions may differ. Read-outs that look alike come from different tables or passages of the source.

What was measured:
(α7)5 nAChR = test system: (α7)5 nAChR; parameters: method as in Dani and Bertrand, [2007]; conditions: homopentameric receptors such as (α7)5; ref Dani and Bertrand, [2007]; cited from earlier work
human α4β2 nAChRs = biological target: T1, human α4β2 nAChRs (Homo sapiens, UniProt P17787+P43681); assay: cell-based; assay type: cell-based; conditions: for voltage dependence of the fractional block at the steady state: NNN 10 μM with 10 μM nicotine, NNK 1 μM with 100 nM nicotine, different Vm; for Imax/Inico: maximal current relative to nicotine, whole-cell; for functional behaviour on α4β2 nAChRs: patch-clamp
T1 construct: expressed in transfected cells
Protocol: HEK 293 cells stably expressing human α4β2 nAChRs were cultured by standard methods (Di Resta et al., [2010]). In brief, cultures were maintained in Dulbecco's modified Eagle's medium (Hyclone Laboratories), supplemented with 10% fetal calf serum (Hyclone), 4.5 g/l glutamine, […] hygromycin β, and 0.25 μg/ml amphoterycin B. Cells were grown at 37°C and 5% CO2. For patch-clamp experiments, cells were harvested by treatment with trypsin and plated onto 35 mm Petri dishes (Corning Inc.).
Cells were voltage-clamped by using the whole-cell configuration of the patch-clamp method. Currents were registered with an Axopatch 200B amplifier (Molecular Devices), at room temperature (20–22°C). Micropipettes (3–4 MΩ) were pulled from borosilicate capillaries (GMBH) with a P-97 Flaming/Brown Micropipette Puller (Sutter Instrument Co.). The cell capacitance and series resistance (up to about 75%) were always compensated. Currents were low-pass filtered at 2 kHz and acquired on-line at 5–10 kHz with Molecular Devices hardware and software (pClamp 8 and Axoscope 8). After patch rupture, we usually allowed 1–2 min for pipette solution exchange and signal stabilization, before applying our stimuli. Extracellular solutions were applied with an RSC-160 Rapid Solution Changer (BioLogic Science Instruments). The solution is delivered to the cells through borosilicate capillaries connected to Tygon tubes. Seven independent lines are available. […] The perfusing line was totally substituted whenever the drug was changed.
Unless otherwise indicated, chemicals, and drugs were purchased by Sigma-Aldrich Italia Srl. The extracellular solution contained (mM): NaCl 130, KCl 5, CaCl2 2, MgCl2 2, HEPES 10, D-glucose 5 (pH 7.4; adjusted with NaOH). Pipettes contained (mM): K-aspartate 120, NaCl 10, MgCl2 2, CaCl21.3, EGTA-KOH 10, HEPES 10, MgATP 1, (pH 7.3; adjusted with KOH). […] NNK and NNN (20 mM) were dissolved in water and kept refrigerated for no longer than 1 week. […] The final concentrations were obtained by serial dilution.
Data were analyzed with Clampfit 9.2 (Molecular Devices) and OriginPro 9 (OriginLab Co.). Theoretical curves best fitting the data were determined by a nonlinear least-squares method (Levenberg-Marquardt algorithm). For nAChR activation we used both a simple Hill function and the sum of two Hill expressions (Covernton and Connolly, [2000]). The single-term expression was:
The two-terms Hill expression was:
(2) IL/Imax=A/(1+EC50high/[L])^nH1+1-A/(1+EC50low/[L])^nH2
where A is the fraction of receptors in the high-affinity state; EC50high and EC50low are the EC50 values of the components at high and low affinity, respectively; nH1 and nH2 are the corresponding Hill coefficients, and the other symbols are as in Equation (1).
The function used to fit the desensitization data points (Figure 3) was:
(3) ISS/Ipeak=B+1-B/(1+[L]/IC50)^nH
ISS was found by fitting the current decay with a single exponential function and taking the steady state value of this function. A similar function was used to fit the fractional inhibition in Figures 4B, 5B.
(4) y=αNic[Nic]/EC50+αNNK[NNK]/EC50(NNK)/1+[Nic]/EC50+[NNK]/EC50(NNK)

[1] = test system: epibatidine-sensitive nAChRs; parameters: method as in Schuller, [2007]; conditions: SCLC cells, ref Schuller, [2007], read-out: EC50 measured in binding studies; cited from earlier work
α3β4 nAChR = test system: α3β4 nAChR; parameters: method as in Nunes-Alves et al., [2012]; conditions: in the presence of 100 μM nicotine; ref Nunes-Alves et al., [2012]; cited from earlier work
muscle subtype nAChR = test system: muscle subtype nAChR; parameters: method as in Nunes-Alves et al., [2012]; conditions: ref Nunes-Alves et al., [2012]; cited from earlier work
[2] = cited from earlier work
[3] = two-terms Hill fit (Equation 2)

T1 sequence (P43681 29-627 limits assumed): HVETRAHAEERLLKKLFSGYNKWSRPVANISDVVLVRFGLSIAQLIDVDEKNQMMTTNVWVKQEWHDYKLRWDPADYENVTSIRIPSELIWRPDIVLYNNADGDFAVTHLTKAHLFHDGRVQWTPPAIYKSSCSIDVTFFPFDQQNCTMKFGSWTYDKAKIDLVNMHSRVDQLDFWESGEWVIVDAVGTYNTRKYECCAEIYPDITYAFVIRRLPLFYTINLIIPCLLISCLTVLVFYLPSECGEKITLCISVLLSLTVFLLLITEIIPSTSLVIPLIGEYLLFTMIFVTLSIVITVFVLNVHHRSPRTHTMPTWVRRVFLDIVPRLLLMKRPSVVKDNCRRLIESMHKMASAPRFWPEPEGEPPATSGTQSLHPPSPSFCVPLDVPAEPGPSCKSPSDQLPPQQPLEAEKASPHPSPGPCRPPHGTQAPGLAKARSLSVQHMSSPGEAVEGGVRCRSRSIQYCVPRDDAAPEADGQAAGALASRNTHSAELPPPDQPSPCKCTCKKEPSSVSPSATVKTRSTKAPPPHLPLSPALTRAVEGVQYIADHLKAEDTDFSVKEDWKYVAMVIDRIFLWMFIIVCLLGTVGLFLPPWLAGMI
T1 sequence (P17787 26-502): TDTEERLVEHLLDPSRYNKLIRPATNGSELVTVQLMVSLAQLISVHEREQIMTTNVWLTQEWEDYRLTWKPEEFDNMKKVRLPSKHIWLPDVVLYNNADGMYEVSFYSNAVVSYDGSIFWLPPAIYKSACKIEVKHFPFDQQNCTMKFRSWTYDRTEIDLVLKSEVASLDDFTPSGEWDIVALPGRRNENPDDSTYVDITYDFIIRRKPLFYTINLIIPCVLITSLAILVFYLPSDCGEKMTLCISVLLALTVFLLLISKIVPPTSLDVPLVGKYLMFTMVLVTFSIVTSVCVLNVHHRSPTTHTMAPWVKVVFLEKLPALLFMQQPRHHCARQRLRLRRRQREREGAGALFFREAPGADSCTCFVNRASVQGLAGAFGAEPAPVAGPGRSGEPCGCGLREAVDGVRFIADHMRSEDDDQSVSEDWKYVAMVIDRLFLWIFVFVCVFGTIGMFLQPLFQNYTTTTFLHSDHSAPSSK

CN(CCCC(=O)c1cccnc1)N=O [NNK, 4-(methylnitrosamine)-1-(3-pyridyl)-1-butanone]
peak current (human α4β2 nAChRs; 10 nM nicotine plus 1 μM NNK, n = 11): 160 ± 30 pA
average current (human α4β2 nAChRs; 100 nM nicotine plus 100 μM NNK, n = 8): 159.1 ± 25.1 pA
potentiation of the current activated by nicotine (human α4β2 nAChRs; 1 μM NNK on 0.01 μM nicotine): 26%
concentration of nicotine at which NNK reversed its effect (human α4β2 nAChRs; 1 μM NNK, estimated by fit with Equation 4): around 20 nM
average peak current density (human α4β2 nAChRs; 10 μM NNK alone, −80 mV, n = 9): 5.75 ± 1.22 pA/pF
concentration of nicotine at which sign reversal of NNK effect occurs (human α4β2 nAChRs; 100 μM NNK): approximately 400 nM
potentiation of the current activated by nicotine (human α4β2 nAChRs; 100 μM NNK on 100 nM (0.1 μM) nicotine, −80 mV): approximately 80%
measured peak current relative to the value in the presence of 300 μM nicotine (human α4β2 nAChRs; 100 μM NNK, −80 mV, n = 13): 0.14 ± 0.02
nH of desensitization curve (human α4β2 nAChRs; Equation 3): 0.9
inhibition at 100 µM (human α4β2 nAChRs; HEK293, read-out: inhibition of the current elicited by nicotine): 40%
nicotine concentrations whose currents are potentiated by co-applied NNK (human α4β2 nAChRs; NNK co-applied with nicotine): ≤ 100 nM
effect on the currents activated by 10 μM nicotine (human α4β2 nAChRs; NNK concentrations up to 100 nM): no effect
voltage dependence of the fractional block at the steady state (human α4β2 nAChRs): independent of the applied Vm
nH, Hill coefficient of single-term Hill fit (Equation 1) (human α4β2 nAChRs; activation by agonist alone, −80 mV): 0.44
nH of inhibition curve (human α4β2 nAChRs; currents activated by 10 μM nicotine, Equation 3): 0.95
fit parameters αNIC / αNNK of Equation 4 (human α4β2 nAChRs; fit of data with 1 μM NNK plus nicotine (Figure 5C)): 5 µM
estimated maximal current activated by NNK, % of the current elicited by 300 μM nicotine (human α4β2 nAChRs; from Equation 1 fit, −80 mV): approximately 16%
Imax/Inico (human α4β2 nAChRs; −80 mV): 0.16
functional behaviour on α4β2 nAChRs (human α4β2 nAChRs): partial agonist
IC50 (human α4β2 nAChRs; read-out: Desensitization IC50, fractional steady state current ISS/Ipeak vs agonist concentration, Equation 3): 1.7 µM
EC50 (human α4β2 nAChRs; read-out: EC50 (single-term Hill, Equation 1), peak whole-cell currents at −80 mV, activation by agonist alone): 16.7 µM
EC50 (human α4β2 nAChRs; read-out: EC50high, high-affinity component, two-terms Hill fit (Equation 2)): 0.035 µM
EC50 (human α4β2 nAChRs; read-out: EC50low, low-affinity component, two-terms Hill fit (Equation 2)): 12.8 µM
IC50 (human α4β2 nAChRs; read-out: Inhibition IC50, with 10 μM nicotine, steady state fractional current, −80 mV): > 100 µM
Hill coefficient of the high-affinity component (nH1 in Table 1) (human α4β2 nAChRs; [3]): 1.2
Hill coefficient of the low-affinity component (nH2 in Table 1) (human α4β2 nAChRs; [3]): 1.4
NNK concentrations that elicited inward currents (human α4β2 nAChRs; −80 mV, NNK alone): higher than 10 nM
EC50 [1]: ~17 µM

O=NN1CCC[C@H]1c1cccnc1 [NNN, N'-nitrosonornicotine]
voltage dependence of the fractional block at the steady state (human α4β2 nAChRs): independent of the applied Vm
Imax/Inico (human α4β2 nAChRs; −80 mV): 0
functional behaviour on α4β2 nAChRs (human α4β2 nAChRs): pure inhibitor
IC50 (human α4β2 nAChRs; read-out: Inhibition IC50): ~0.001 µM
IC50 (human α4β2 nAChRs; with 10 μM nicotine, steady state fractional current, −80 mV, read-out: Inhibition IC50): 0.00021 µM
nAChR activation (whole-cell current) by the compound alone (human α4β2 nAChRs; −80 mV, NNN 10 μM and up to 100 μM): never produced nAChR activation; also recorded: did not elicit any whole-cell current
IC50 (α3β4 nAChR): 1140 µM
effect on the muscle subtype (muscle subtype nAChR): little effect
concentrations normally encountered in smokers' plasma ([2]; ref Schuller, [2007]): < 0.1 nM

CN1CCC[C@H]1c1cccnc1 [Nicotine, nicotine, reference compound]
average current (human α4β2 nAChRs): 89.4 ± 19.4 pA
nH of nicotine alone (Figure 4C) (human α4β2 nAChRs): 0.83
nH of nicotine in the presence of 1 nM NNN (human α4β2 nAChRs): 0.92
nH of nicotine in the presence of 1 μM NNN (human α4β2 nAChRs): 1
peak current (human α4β2 nAChRs): 119 ± 24 pA
